Legend:
[1] = target: T1, Brd4 bromodomain 1 (BRD4(1)) (Homo sapiens, UniProt O60885); assay: Inhibition of tetra-acetylated histone H4 binding to BET bromodomains (TR-FRET); set-up: key: Active: Compounds with an IC50 value less than 30 μM were deemed to be active.; Not Active: Compounds with an IC50 value less than 30 μM were deemed to be active; details: first bromodomain of Brd4, tetra-acetylated histone H4 peptide
T1 construct: made in house; host or cells: E. coli BL21(DE3)
Outline: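 N-terminally His-tagged bromodomain (200 nM) from E. coli was mixed with biotinylated tetra-acetylated histone H4 peptide (25-50 nM), Eu-streptavidin and XL665 anti-His, plus compound, in HEPES pH 7.4 buffer with 0.2% DMSO. After 2 h at room temperature, the 665/620 nm TR-FRET decrease gave IC50 from dose-response curves.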

hApoA-1 mRNA = assay: Up-regulation of hApoA-1 mRNA transcription in Huh7 cells; type: cell-based, human; set-up: key: Active: Compounds with an EC170 value less than 30 μM were deemed to be active; details: 48 h treatment
Procedure: In this example, ApoA-I mRNA in tissue culture cells was quantitated to measure the transcriptional up-regulation of ApoA-I when treated with a compound of the present disclosure.
Huh7 cells (2.5×10^5 per well) were plated in a 96-well plate using 100 μL DMEM per well, (Gibco DMEM supplemented with penicillin/streptomycin and 10% FBS), 24 h before the addition of the compound of interest. After 48 h treatment, the spent media was removed from the Huh-7 cells and placed on ice (for immediate use) or at −80° C. (for future use) with the “LDH cytotoxicity assay Kit II” from Abcam. The cells remaining in the plate were rinsed with 100 μL PBS.
Then 85 μL of cell lysis solution was added to each well and incubated for 5-10 min at room temperature, to allow for complete cell lysis and detachment. mRNA was then prepared using the “mRNA Catcher PLUS plate” from Life Technologies, according to the protocol supplied. After the last wash, as much wash buffer as possible was aspirated without allowing the wells to dry. Elution Buffer (E3, 80 μL) was then added to each well. mRNA was then eluted by incubating the mRNA Catcher PLUS plate with Elution Buffer for 5 min at 68° C., and then 1 min at 4° C. Catcher plates with mRNA eluted were kept on ice for use or stored at −80° C.
The eluted mRNA isolated was then used in a one-step real-time PCR reaction, using components of the Ultra Sense Kit together with Life Technologies primer-probe mixes. Real-time PCR data was analyzed, using the Ct values, to determine the fold induction of each unknown sample, relative to the control (that is, relative to the control for each independent DMSO concentration).
Compounds with an EC170 value less than 30 μM were deemed to be active.

hIL-6 mRNA = assay: Inhibition of hIL-6 mRNA transcription in LPS-stimulated U937 macrophages; type: cell-based, human; set-up: key: Active: Compounds with an IC50 value less than 30 μM were deemed to be active.; Not Active: Compounds with an IC50 value less than 30 μM were deemed to be active; details: U937 cells differentiated with PMA, LPS stimulation, 3 h
Procedure: In this example, hIL-6 mRNA in tissue culture cells was quantitated to measure the transcriptional inhibition of hIL-6 when treated with a compound of the present disclosure.
A human leukemic monocyte lymphoma cell line (U937) was plated (3.2×10^4 cells per well) in a 96-well plate in 100 μL RPMI-1640 containing 10% FBS and penicillin/streptomycin, and differentiated into macrophages for 3 days in 60 ng/mL PMA ([…]) at 37° C. in 5% CO2 prior to the addition of the compound of interest. The cells were pretreated for 1 h with the test compound prior to stimulation with 1 ug/mL lipopolysaccharide from Escherichia coli. The cells were incubated at 37° C. for 3 h before the cells were harvested. At time of harvest, the spent media was removed from the cells and the cells were rinsed in 200 μL PBS. Cell lysis solution (70 μL) was added the cells in each well and incubated for 5-10 min at room temperature, to allow for complete cell lysis and detachment. mRNA was then prepared using the “mRNA Catcher PLUS plate” (Invitrogen), according to the protocol supplied. After the last wash, as much wash buffer as possible was aspirated without allowing the wells to dry. Elution buffer (E3, 70 μL) was then added to each well. mRNA was then eluted by incubating the mRNA Catcher PLUS plate with Elution Buffer for 5 min at 68° C. and then immediately placing the plate on ice.
The eluted mRNA isolated was then used in a one-step quantitative real-time PCR reaction, using components of the Ultra Sense Kit together with Applied Biosystems primer-probe mixes. Real-time PCR data was analyzed, normalizing the Ct values for hIL-6 to an internal control, prior to determining the fold induction of each unknown sample, relative to the control.

c-myc in MV4-11 cells = assay: Inhibition of c-myc expression in cancer cell lines (mRNA, real-time PCR); type: cell-based, Human; set-up: key: Active: Compounds with an IC50 value less than 30 μM were deemed to be active.; Not Active: Compounds with an IC50 value less than 30 μM were deemed to be active; details: 3 h
Procedure: MV4-11 cells (2.5×10^4 cells) were plated in 96 well U-bottom plates with test compound or DMSO (0.1%), and incubated for 3 h at 37° C. Cells were then harvested by centrifugation, lysed, and mRNA was isolated using the mRNA catcher plus kit (Invitrogen). Reverse transcription of the mRNA and duplex amplification of the c-myc and cyclophilin cDNAs was performed using the RNA Ultrasense kit (Invitrogen) and a ViiA7 real-time PCR machine (Applied Biosystems). IC50 values were determined from a dose response curve.

human AML MV-4-11 cells = assay: Inhibition of cell proliferation in cancer cell lines (CellTiter Aqueous One); type: cell-based; set-up: key: Active: Compounds with an IC50 value less than 30 μM were deemed to be active.; Not Active: Compounds with an IC50 value less than 30 μM were deemed to be active; details: 72 h
Procedure: MV4-11 cells: 96-well plates were seeded with 5×10^4 cells per well of exponentially growing human AML MV-4-11 (CRL-9591) cells and immediately treated with two-fold dilutions of test compounds, ranging from 30 μM to 0.2 μM. Triplicate wells were used for each concentration, as well as a media only and three DMSO control wells. The cells and compounds were incubated at 37° C., 5% CO2 for 72 h before adding 20 μL of the CellTiter Aqueous One Solution (Promega) to each well and incubating at 37° C., 5% CO2 for an additional 3-4 h. The absorbance was taken at 490 nm in a spectrophotometer and the percentage of proliferation relative to DMSO-treated cells was calculated after correction from the blank well. IC50 were calculated using the GraphPad Prism software.

Row | SMILES | FRET activity BRD4(1) [1] | ApoA-1 activity (EC170 < 30 μM) (hApoA-1 mRNA) | IL-6 activity (IC50 < 30 μM) (hIL-6 mRNA) | c-myc activity (IC50 < 30 μM) (c-myc in MV4-11 cells) | melting point [°C] | Cell Proliferation activity (IC50 < 30 μM) (human AML MV-4-11 cells)
1 | COc1ccc(-c2nc3cc(OC)cc(OC)c3c(=O)[nH]2)c(NC2CCN(C)CC2)c1 [Example 1, 5,7-Dimethoxy-2-(4-methoxy-2-((1-methylpiperidin-4-yl)amino)phenyl)-quinazolin-4(3H)-one] | Active | Active | Active | Active | 252 to 253 | Active
2 | COc1cc(OC)c2c(=O)[nH]c(-c3ncccc3NC3CCN(C(=O)C(C)O)CC3)nc2c1 (stereo not drawn) [Example 60, 2-(3-((1-(2-hydroxypropanoyl)piperidin-4-yl)amino)pyridin-2-yl)-5,7-dimethoxyquinazolin-4(3H)-one] | Active |  | Active | Active | 290 to 291 | Active
3 | COC(=O)C(=O)N1CCC(Nc2cccnc2-c2nc3cc(OC)cc(OC)c3c(=O)[nH]2)CC1 [Example 55, Methyl-2-(4-((2-(5,7-dimethoxy-4-oxo-3,4-dihydroquinazolin-2-yl)pyridin-3-yl)amino)piperidin-1-yl)-2-oxoacetate] | Active |  | Active | Active | 165 to 166 | Active
4 | COc1cc(OC)c2c(=O)[nH]c(-c3ncccc3NC3CCN(C(C)C)CC3)nc2c1 [Example 18, 2-(3-((1-Isopropylpiperidin-4-yl)amino)pyridin-2-yl)-5,7-dimethoxyquinazolin-4(3H)-one] | Active |  | Active | Active | 170 to 172 | Active
5 | COc1ccc(-c2nc3cc(OC)cc(OC)c3c(=O)[nH]2)c(NCCN2CCN(C(C)C)CC2)c1 [Example 22, 2-(2-((2-(4-Isopropylpiperazin-1-yl)ethyl)amino)-4-methoxyphenyl)-5,7-dimethoxyquinazolin-4(3H)-one] | Active |  | Active | Active | 227 to 228 | Active
6 | COc1cc(OC)c2c(=O)[nH]c(-c3ncccc3NC3CCN(C(=O)C(=O)N(C)C)CC3)nc2c1 [Example 51, 2-(4-((2-(5,7-Dimethoxy-4-oxo-3,4-dihydroquinazolin-2-yl)pyridin-3-yl)amino)piperidin-1-yl)-N,N-dimethyl-2-oxoacetamide] | Active |  | Active | Active | 261 to 262 | Active
7 | COc1cc(OC)c2c(=O)[nH]c(-c3ncccc3NCCCNC(=O)C(C)C)nc2c1 [Example 57, N-(3-((2-(5,7-Dimethoxy-4-oxo-3,4-dihydroquinazolin-2-yl)pyridin-3-yl)amino)propyl)isobutyramide] | Active |  | Active | Active | 230 to 231 | Not Active
8 | COc1cc(OC)c2c(=O)[nH]c(-c3ncc(OCCO)cc3NC3CCN(C(=O)C(C)C)CC3)nc2c1 [Example 64, 2-[5-(2-Hydroxyethoxy)-3-(1-isobutyroylpiperidin-4-ylamino)pyridin-2-yl]-5,7-dimethoxyquinazolin-4(3H)-one] | Active |  | Active | Active | 173 to 176 | Active
9 | COc1cc(OC)c2c(=O)[nH]c(-c3ncccc3NC3CCN(C(=O)C(C)C)CC3)nc2c1 [Example 36, 2-(-((1-Isobutyrylpiperidin-4-yl)amino)pyridin-2-yl)-5,7-dimethoxyquinazolin-4(3H)-one] | Active | Active | Active | Active |  | Active
10 | COc1ccc(-c2nc3cc(OC)cc(OC)c3c(=O)[nH]2)c(NCCN2CCN(C)CC2)c1 [Example 25, 5,7-Dimethoxy-2-(4-methoxy-2-((2-(4-methylpiperazin-1-yl)ethyl)amino)phenyl)-quinazolin-4(3H)-one] | Active | Active | Active |  | 230 to 231 | 
11 | COc1ccc(-c2nc3cc(OC)cc(OC)c3c(=O)[nH]2)c(NCC2CCN(C)C2)c1 (stereo not drawn) [Example 7, 5,7-Dimethoxy-2-(4-methoxy-2-(((1-methylpyrrolidin-3-yl)methyl)amino)phenyl)-quinazolin-4(3H)-one] | Active |  | Active | Active | 233 to 235 | Active
12 | CCNc1cc(OC)c2c(=O)[nH]c(-c3ncccc3NC3CCN(C(C)C)CC3)nc2c1 [Example 69, 7-(Ethylamino)-2-(3-((1-isopropylpiperidin-4-yl)amino)pyridin-2-yl)-5-methoxyquinazolin-4(3H)-one] | Active |  | Active | Active | 219 to 221 | Active

Source: US10500209B2, “Quinazolinones as bromodomain inhibitors” (Zenith Epigenetics Ltd., priority 2013, dated 2019)
